Key:
Type in all cases: in vivo
[1] = tested on: Beet Armyworm (Spodoptera exigua, LAPHEG); assay: Insecticidal test for beet armyworm (BAW), 128-well diet tray assay; conditions: 168 h, 50 μg/cm^2 of test compound on artificial diet, second instar larvae, 25° C., five to seven days, average of eight wells, read-out: BAW % Control (or Mortality) rating
Procedure: Insecticidal Test for Beet Armyworm (Spodoptera exigua, LAPHEG) (“BAW”)
(§1) Bioassays on beet armyworm (BAW; Spodoptera exigua: Lepidoptera) are conducted using a 128-well diet tray assay. One to five second instar BAW larvae are placed in each well (3 mL) of the diet tray that had been previously filled with 1 mL of artificial diet to which 50 μg/cm^2 of the test compound (dissolved in 50 μL of 90:10 acetone-water mixture) had been applied (to each of eight wells) and then allowed to dry. Trays are covered with a clear self-adhesive cover, vented to allow gas exchange, and held at 25° C., 14:10 light-dark for five to seven days. Percent mortality is recorded for the larvae in each well; activity in the eight wells is then averaged.

[2] = tested on: Cabbage Looper (Trichloplusia Ni, TRIPNI); assay: Insecticidal test for cabbage looper (CL), 128-well diet tray assay; conditions: Trichoplusia ni, 168 h, read-out: CL % Control (or Mortality) rating
Procedure: Insecticidal Test for Cabbage Looper (Trichloplusia Ni, TRIPNI) (“CL”)
as §1, with “cabbage looper (CL; Trichloplusia ni:” for “beet armyworm (BAW; Spodoptera exigua:”, “CL” for “BAW”

[3] = tested on: Yellow Fever Mosquito (Aedes aegypti, AEDSAE); assay: Insecticidal test for yellow fever mosquito (YFM), 96-well plate larval assay; conditions: from 4000 ppm DMSO master solution, diluted; about 1 day-old larvae; room temperature; scored after 3 days
Procedure: Insecticidal Test for Yellow Fever Mosquito (Aedes aegypti, AEDSAE) (“YFM”)
Master plates containing 400 μg of a molecule dissolved in 100 μL of dimethyl sulfoxide (DMSO) (equivalent to a 4000 ppm solution) are used. A master plate of assembled molecules contains 15 μL per well. To this plate, 135 μL of a 90:10 water/acetone mixture is added to each well. A robot (Biomek® NXP Laboratory Automation Workstation) is programmed to dispense 15 μL aspirations from the master plate into an empty 96-well shallow plate (“daughter” plate). There are 6 reps (“daughter” plates) created per master. The created “daughter” plates are then immediately infested with YFM larvae.
The day before plates are to be treated, mosquito eggs are placed in Millipore water containing liver powder to begin hatching (4 g. into 400 mL). After the “daughter” plates are created using the robot, they are infested with 220 μL of the liver powder/larval mosquito mixture (about 1 day-old larvae). After plates are infested with mosquito larvae, a non-evaporative lid is used to cover the plate to reduce drying. Plates are held at room temperature for 3 days prior to grading. After 3 days, each well is observed and scored based on mortality.

CC(C)c1ccc(Cl)cc1N1C(=O)CS/C1=N\C(=O)NCCc1ccc(NC(=O)Nc2ccc(OC(F)(F)F)cc2)cc1 [Compound A15, (Z)-1-(4-(2-(3-(3-(5-Chloro-2-isopropylphenyl)-4-oxothiazolidin-2-ylidene)ureido)ethyl)phenyl)-3-(4-(trifluoromethoxy)phenyl)urea]
mortality at 50 µg/cm2 [1]: 50 to 100% | mortality at 50 µg/cm2 [2]: 50 to 100% | YFM % Control (or Mortality) rating [3]: A (80-100)

Cc1ccc(C(C)C)c(N2C(=O)CS/C2=N\C(=O)Nc2ccc(NC(=O)Nc3ccc(OC(F)(F)F)cc3)cc2)c1 [Compound A7, (Z)-1-(3-(2-isopropyl-5-methylphenyl)-4-oxothiazolidin-2-ylidene)-3-(4-(3-(4-(trifluoromethoxy)phenyl)ureido)phenyl)urea]
mortality at 50 µg/cm2 [1]: 50 to 100% | mortality at 50 µg/cm2 [2]: 50 to 100% | YFM % Control (or Mortality) rating [3]: A (80-100)

CCc1cccc(C)c1N1C(=O)CS/C1=N\C(=O)NCCc1ccc(NC(=O)Nc2ccc(C(F)(F)F)cc2)cc1 [Compound A11, (Z)-1-(4-(2-(3-(3-(2-Ethyl-6-methylphenyl)-4-oxothiazolidin-2-ylidene)ureido)ethyl)phenyl)-3-(4-(trifluoromethyl)phenyl)urea]
mortality at 50 µg/cm2 [1]: 50 to 100% | mortality at 50 µg/cm2 [2]: 50 to 100% | YFM % Control (or Mortality) rating [3]: A (80-100)

Cc1ccc(C(C)C)c(N2C(=O)CS/C2=N\C(=O)NCCc2ccc(NC(=O)c3ccc(OC(F)(F)F)cc3)cc2)c1 [Compound A49, (Z)—N-(4-(2-(3-(3-(2-isopropyl-5-methylphenyl)-4-oxothiazolidin-2-ylidene)ureido)ethyl)phenyl)-4-(trifluoromethoxy)benzamide]
mortality at 50 µg/cm2 [1]: 50 to 100% | mortality at 50 µg/cm2 [2]: 0% | YFM % Control (or Mortality) rating [3]: A (80-100)

CCC(C)Oc1ccc(C)cc1N1C(=O)CS/C1=N\C(=O)NC(C)Cc1ccc(NC(=O)Nc2ccc(C(F)(F)F)cc2)cc1 (centres unmarked) [Compound A30, (Z)-1-(4-(2-(3-(3-(2-(sec-Butoxy)-5-methylphenyl)-4-oxothiazolidin-2-ylidene)ureido)propyl)phenyl)-3-(4-(trifluoromethyl)phenyl)urea]
mortality at 50 µg/cm2 [1]: 50 to 100% | mortality at 50 µg/cm2 [2]: 50 to 100% | YFM % Control (or Mortality) rating [3]: B (More than 0-Less than 80)

CC(Cc1ccc(NC(=O)Nc2ccc(C(F)(F)F)cc2)cc1)NC(=O)/N=C1\SCC(=O)N1c1ccccc1C(C)C (centres unmarked) [Compound A28, (Z)-1-(4-(2-(3-(3-(2-Isopropylphenyl)-4-oxothiazolidin-2-ylidene)ureido)propyl)phenyl)-3-(4-(trifluoromethyl)phenyl)urea]
mortality at 50 µg/cm2 [1]: 50 to 100% | mortality at 50 µg/cm2 [2]: 50 to 100% | YFM % Control (or Mortality) rating [3]: A (80-100)

CC(Cc1ccc(NC(=O)Nc2ccc(OC(F)(F)F)cc2)cc1)NC(=O)/N=C1\SCC(=O)N1c1cc(Cl)ccc1OC(F)(F)F (centres unmarked) [Compound A36, (Z)-1-(4-(2-(3-(3-(5-Chloro-2-(trifluoromethoxy)phenyl)-4-oxothiazolidin-2-ylidene)ureido)propyl)phenyl)-3-(4-(trifluoromethoxy)phenyl)urea]
mortality at 50 µg/cm2 [1]: 50 to 100% | mortality at 50 µg/cm2 [2]: 50 to 100% | YFM % Control (or Mortality) rating [3]: A (80-100)

Cc1ccc(C(C)C)c(N2C(=O)CS/C2=N\C(=O)NC(C)Cc2ccc(NC(=O)Nc3ccc(OC(F)(F)F)cc3)cc2)c1 (centres unmarked) [Compound A26, (Z)-1-(3-(2-Isopropyl-5-methylphenyl)-4-oxothiazolidin-2-ylidene)-3-(1-(4-(3-(4-(trifluoromethoxy)phenyl)ureido)phenyl)propan-2-yl)urea]
mortality at 50 µg/cm2 [1]: 50 to 100% | mortality at 50 µg/cm2 [2]: 50 to 100% | YFM % Control (or Mortality) rating [3]: A (80-100)

COc1ccc(N2C(=O)CS/C2=N\C(=O)NCCc2ccc(NC(=O)Nc3ccc(OC(F)(F)F)cc3)cc2)c(C)c1 [Compound A21, (Z)-1-(4-(2-(3-(3-(4-methoxy-2-methylphenyl)-4-oxothiazolidin-2-ylidene)ureido)ethyl)phenyl)-3-(4-(trifluoromethoxy)phenyl)urea]
mortality at 50 µg/cm2 [1]: 50 to 100% | mortality at 50 µg/cm2 [2]: 50 to 100% | YFM % Control (or Mortality) rating [3]: A (80-100)

Cc1ccc(OCC(F)(F)F)c(N2C(=O)CS/C2=N\C(=O)Nc2ccc(NNC(=O)c3ccc(OC(F)(F)F)cc3)cc2)c1 [Compound A5, (Z)-1-(3-(5-Methyl-2-(2,2,2-trifluoroethoxy)phenyl)-4-oxothiazolidin-2-ylidene)-3-(4-(2-(4-(trifluoromethoxy)benzoyl)hydrazinyl)phenyl)urea]
mortality at 50 µg/cm2 [1]: 0 to 50% | mortality at 50 µg/cm2 [2]: 0 to 50% | YFM % Control (or Mortality) rating [3]: B (More than 0-Less than 80)

Cc1ccc(C(C)C)c(N2C(=O)CS/C2=N\C(=O)NCCc2ccc(NC(=O)Nc3ccc(C(F)(F)F)cc3)cc2)c1 [Compound A9, (Z)-1-(4-(2-(3-(3-(2-isopropyl-5-methylphenyl)-4-oxothiazolidin-2-ylidene)ureido)ethyl)phenyl)-3-(4-(trifluoromethyl)phenyl)urea]
mortality at 50 µg/cm2 [1]: 50 to 100% | mortality at 50 µg/cm2 [2]: 50 to 100% | YFM % Control (or Mortality) rating [3]: A (80-100)

Cc1ccc(C(C)C)c(N2C(=O)CS/C2=N\C(=O)Nc2ccc(N/N=C/c3ccc(OC(F)(F)F)cc3)cc2)c1 [Compound A55, 1-((Z)-3-(2-Isopropyl-5-methylphenyl)-4-oxothiazolidin-2-ylidene)-3-(4-(2-((E)-4-(trifluoromethoxy)benzylidene)hydrazinyl)phenyl)urea]
mortality at 50 µg/cm2 [1]: 50 to 100% | mortality at 50 µg/cm2 [2]: 50 to 100% | YFM % Control (or Mortality) rating [3]: A (80-100)

CCC(C)Oc1ccc(C)cc1N1C(=O)CS/C1=N\C(=O)NCCc1ccc(NC(=O)Nc2ccc(OC(F)(F)F)cc2)cc1 (centres unmarked) [Compound A20]
mortality at 50 µg/cm2 [1]: 50 to 100% | mortality at 50 µg/cm2 [2]: 50 to 100% | YFM % Control (or Mortality) rating [3]: B (More than 0-Less than 80)

CC(C)c1ccccc1N1C(=O)CS/C1=N\C(=O)NCCc1ccc(NC(=O)Nc2ccc(OC(F)(F)F)cc2)cc1 [Compound A16, (Z)-1-(4-(2-(3-(3-(2-Isopropylphenyl)-4-oxothiazolidin-2-ylidene)ureido)ethyl)phenyl)-3-(4-(trifluoromethoxy)phenyl)urea]
mortality at 50 µg/cm2 [1]: 50 to 100% | mortality at 50 µg/cm2 [2]: 50 to 100% | YFM % Control (or Mortality) rating [3]: A (80-100)

Cc1ccc(C(C)C)c(N2C(=O)CS/C2=N\C(=O)Nc2ccc(NS(=O)(=O)c3ccc(OC(F)(F)F)cc3)cc2)c1 [Compound A51, (Z)—N-(4-(3-(3-(2-isopropyl-5-methylphenyl)-4-oxothiazolidin-2-ylidene)ureido)phenyl)-4-(trifluoromethoxy)benzenesulfonamide]
mortality at 50 µg/cm2 [1]: 0% | mortality at 50 µg/cm2 [2]: 50 to 100% | YFM % Control (or Mortality) rating [3]: B (More than 0-Less than 80)

O=C(/N=C1\SCC(=O)N1c1cc(Cl)ccc1OCC(F)(F)F)NCCc1ccc(NC(=O)Nc2ccc(OC(F)(F)F)cc2)cc1 [Compound A17, (Z)-1-(4-(2-(3-(3-(5-Chloro-2-(2,2,2-trifluoroethoxy)phenyl)-4-oxothiazolidin-2-ylidene)ureido)ethyl)phenyl)-3-(4-(trifluoromethoxy)phenyl)urea]
mortality at 50 µg/cm2 [1]: 50 to 100% | mortality at 50 µg/cm2 [2]: 50 to 100% | YFM % Control (or Mortality) rating [3]: A (80-100)

Cc1ccc(C(C)C)c(-n2ccs/c2=N\C(=O)NC(C)Cc2ccc(NC(=O)Nc3ccc(OC(F)(F)F)cc3)cc2)c1 (centres unmarked) [Compound A33, (Z)-1-(4-(2-(3-(3-(2-Isopropyl-5-methylphenyl)thiazol-2(3H)-ylidene)ureido)propyl)phenyl)-3-(4-(trifluoromethoxy)phenyl)urea]
mortality at 50 µg/cm2 [1]: 50 to 100% | mortality at 50 µg/cm2 [2]: 50 to 100% | YFM % Control (or Mortality) rating [3]: A (80-100)

CCc1cccc(C)c1N1C(=O)CS/C1=N\C(=O)NC(C)Cc1ccc(NC(=O)Nc2ccc(C(F)(F)F)cc2)cc1 (centres unmarked) [Compound A32, (Z)-1-(4-(2-(3-(3-(2-Ethyl-6-methylphenyl)-4-oxothiazolidin-2-ylidene)ureido)propyl)phenyl)-3-(4-(trifluoromethyl)phenyl)urea]
mortality at 50 µg/cm2 [1]: 50 to 100% | mortality at 50 µg/cm2 [2]: 50 to 100%
